According to patent publication US10391070B2, “Compositions and methods for treating neurological diseases or injury” (MUSC FOUNDATION FOR RESEARCH DEVELOPMENT, priority 2012, dated 2019):

Experiments:
c-fos = c-fos gene expression in PTZ-treated zebrafish larvae; assay type: in vivo, zebrafish (Danio rerio); details: 7 dpf zebrafish; for reduction of c-fos gene expression compared to PTZ alone: concentrations of Table 9
Description: Ten 7 dpf larvae were placed in 500 μL tank water in wells of a 48-well cell-culture plate and appropriate concentrations of drugs were added as in the behavior study (Table 9). After a 1 h pre-incubation period, PTZ was added to a final concentration of 15 mM in appropriate wells and larvae were incubated for a further 45 min. Fish were quickly euthanized by incubating the plate in an ice-water bath for 15 min. Fish were removed from each well and all liquid removed before freezing at −80° C. RNA was extracted using Trizol (Invitrogen) followed by the RNeasy Mini kit (Qiagen). Frozen embryos were homogenized in 800 μL Trizol using in-tube pestles and a motorized homogenizer. Following a 5-min incubation at room temperature, 200 μL chloroform was added and the samples were centrifuged at 12,000 g for 10 min. The aqueous phase was transferred to a new tube and 250 μL 100% ethanol was added and the samples mixed. This mixture was then transferred to the Qiagen minicolumn assembly and the protocol followed as described with the kit. Samples were eluted in 30 μL RNase free water and concentration was determined using the Nanodrop instrument (Thermo Fisher). cDNA was prepared using the RETROscript kit (Ambion) with 500 ng total RNA. cDNA was then diluted 1:1 with sterile dH2O and 2.5 μL of this cDNA was used in the QPCR reaction with SsoAdvanced SYBR Green Supermix (BioRad) and c-fos primers designed to span an intron-exon junction (c-fos F: […], SEQ ID NO:9; c-fos R: […], SEQ ID NO:10) ([…] each) in the BioRad CFX96 RealTime instrument. L13a and EF1a gene expression were used for normalization (Rahn et al., 2013). The following cycle conditions were used: 95° C./3 min, 40 cycles of 95° C./15 s, 62° C./30 s, followed by 95° C. 30 s and a dissociation curve. Samples were run in duplicate. The 2^−ΔΔCt method was used to quantify gene expression, whereby all gene Ct values were first normalized to Ct values of the geometric mean of the Ct of L13a and EF1a (Livak and Schmittgen, 2001). Treated samples were then normalized to the tank water control and converted to fold change.

HT-22 neuronal cells = test: Respirometry (OCR, ECAR; Seahorse XF-96); assay type: cell-based, mouse; parameters: ECAR (glycolysis), difference from control: unit not given here; details: HT-22 cells, mean±SEM; for basal cellular respiration, difference in OCR from control: 1 h treatment, OCR as percentage of pre-treatment value; for basal mitochondrial respiration, difference from control: basal minus non-mitochondrial (rotenone); for ATP-linked respiration, difference from control: basal minus oligomycin
Description: Oxygen consumption rates (OCR) and extracellular acidification rates (ECAR) of HT-22 neuronal cells were performed on the XF-96 Extracellular Flux Analyzer (Seahorse Bioscience) using standard methods (Beeson et al., 2010). In brief, cells were cultured in 96 well Seahorse plates in DMEM high glucose media (Invitrogen) supplemented with 10% FBS, 10 mM HEPES, and 1% antibiotic-antimycotic (Invitrogen). The media was replaced with DMEM media supplemented with 25 mM glucose, 10 mM sodium pyruvate, 31 mM NaCl, and 2 mM glutamine at pH 7.4. Each of the four drug ports on the Seahorse sensor cartridge were filled with test compound (media only, 5 μM NQN-1, 10 μM VK3 or 12.5 μM MB), 10 μM oligomycin, 1 μM FCCP, and 5 μM rotenone, which were injected into each well at 20, 80, 110, and 135 min, respectively. The pmol/min OCR rate for each well (9-52 wells/group) was measured. Wells were excluded from the analysis if their OCR values surpassed the Tukey Outlier Rule. In order to standardize the OCR rates across wells, the average OCR value at 17 min (last time point prior to injection of the test compounds) for each experimental group was calculated, and set to 100. All OCR values are given as a percentage of this pre-treatment value. […]

[1] = system: minimal clonic seizures (6 Hz); test: Minimal clonic seizure (6 Hz) test; assay type: in vivo, mouse; details: mice; for animals protected/animals tested, 0.25 h / animals protected/animals tested, 0.5 h / animals protected/animals tested, 1.0 h / animals protected/animals tested, 2.0 h / animals protected/animals tested, 4.0 h: 6 Hz
Description: Mouse studies were performed by NIH Anticonvulsant Screening Program at the National Institute of Neurological Disorders and Stroke (Stables and Kupferberg, 1997) according to the established NIH experimental procedures outlined below. Compounds were delivered into mice by i.p. injection at a dose of 100 mg/kg in sterile 5% DMSO, 95% Neobee (Josey et al., 2013). One of four methods for seizure induction was subsequently administered to mice at 0.25, 0.5, 1, 2 and 4 h after treatment with compound. (1) Subcutaneous PTZ seizure threshold test. PTZ was administered at a concentration of 85 mg/kg, into the loose fold of skin in the midline of the neck. […] (2) Maximal electroshock test. 60 Hz of 50 mA alternating current was delivered for 0.2 s by corneal electrodes. Mice were considered protected from seizures when the hindlimb tonic extensor was absent (White et al., 1995). (3) Minimal clonic seizure (6 Hz) test. 6 Hz of 32 mA or 44 mA alternating current was delivered for 3 s by corneal electrodes to elicit a psychomotor seizure. Mice were considered protected from seizures when the automatistic behaviors were absent (Barton et al., 2001). (4) Corneal kindled mouse model. Mice were kindled electrically with a 3 s stimulation, 8 mA, 60 Hz, and corneal electrodes to a criterion of 10 consecutive Stage 5 seizures (facial clonus and head nodding progressing to forelimb clonus, and finally rearing and falling accompanied by a generalized clonic seizure as described by Racine, 1972). Animals generally reach Stage 5 after twice daily stimulation for 8 days. With continued stimulation once a day, animals usually progressed to a reproducible Stage 5 after 10-14 additional days. At least 72 hours after the mice were kindled, the test substance was administered i.p. and each animal was given the electrical stimulus indicated above. […] Treated animals not displaying a Stage 4 or 5 seizure were considered protected.
6 Hz of 32 mA or 44 mA alternating current was delivered for 3 s by corneal electrodes to elicit a psychomotor seizure. Mice were considered protected from seizures when the automatistic behaviors were absent (Barton et al., 2001). Pre-administration of test compounds (100 mg/kg) to mice via i.p. injection protects against minimal clonic seizures (6 Hz). The data for each treatment is represented as the number of animals protected/number of animals tested.
The minimal clonic seizure (6 Hz) test is generally used to assess a agent's efficacy against electrically-induced seizures but uses a lower frequency (6 Hz) and longer duration of stimulation (3s) shock. Test compounds are pre-administered to mice via i.p. injection. Individual mice are challenged with sufficient current delivered through corneal electrodes to elicit a psychomotor seizure in 97% of animals (32 mA for 3s). Untreated mice will display seizures characterized by a minimal clonic phase followed by stereotyped, automatistic behaviors described originally as being similar to the aura of human patients with partial seizures. Animals not displaying this behavior are considered protected. Animals may also be evaluated using stimulation of 22 or 44 mA.

| SMILES | fold reduction of c-fos gene expression compared to PTZ alone (c-fos; 6 μM pre-treatment) | basal cellular respiration, difference in OCR from control (HT-22 neuronal cells) | basal mitochondrial respiration, difference from control (HT-22 neuronal cells) | ATP-linked respiration, difference from control (HT-22 neuronal cells) | ECAR (glycolysis), difference from control (HT-22 neuronal cells) | reduction of c-fos gene expression compared to PTZ alone (c-fos) | animals protected/animals tested, 0.25 h ([1]; 100 mg/kg i.p., 32 mA) | animals protected/animals tested, 0.5 h ([1]; 100 mg/kg i.p., 32 mA) | animals protected/animals tested, 1.0 h ([1]; 100 mg/kg i.p., 32 mA) | animals protected/animals tested, 2.0 h ([1]; 100 mg/kg i.p., 32 mA) | animals protected/animals tested, 4.0 h ([1]; 100 mg/kg i.p., 32 mA) | anticonvulsant activity in minimal clonic (6 Hz) test ([1]; 32 mA) | protection against 6 Hz seizures ([1]; 100 mg/kg i.p., 32 mA, 0.25 h) | protection in 6 Hz model at 44 mA ([1]; 44 mA) |
| --- | --- | --- | --- | --- | --- | --- | --- | --- | --- | --- | --- | --- | --- | --- |
| CC1=CC(=O)c2ccccc2C1=O [VK3, menadione, reference compound] | approximately 10 fold | 21.57±0.97 | elevated but failed to reach statistical significance | 12.2±3.12 | 1.89±0.93 | – | – | – | – | – | – | – | – | – |
| O=C1C=C(NCc2ccccc2)C(=O)c2ccccc21 [Compound 2j, 2-(benzylamino)naphthalene-1,4-dione] | – | −4.14±2.9 | 9.09±3.13 | 6.58±3.28 | 5.03±1.11 | about half | 0/4 | 0/4 | 1/4 | 1/4 | 1/4 | good anticonvulsant activity | – | – |
| C#CCNC1=CC(=O)c2ccccc2C1=O [Compound 2h, 2-(prop-2-yn-1-ylamino)naphthalene-1,4-dione] | – | – | – | – | – | about half | 4/4 | 2/4 | 1/4 | 1/4 | 0/4 | good anticonvulsant activity | 100% | did not result in any protection |
| O=C1C=C(NCc2cccc(Cl)c2)C(=O)c2ccccc21 [Compound 2q, 2-((3-chlorobenzyl)amino)naphthalene-1,4-dione] | – | – | – | – | – | about half | 1/4 | 0/4 | 1/4 | 0/4 | 0/4 | good anticonvulsant activity | – | – |
